Reference: BindingDB's records for patent US20240336562 (Hangzhou Innogate Pharma, 2024)

Molecular target: NACHT, LRR and PYD domains-containing protein 3 (Homo sapiens, UniProt Q96P20)
Experiment: Inhibitory Activity of NLRP3
Method: ELISA plate, and incubated at 4° C. overnight. Discard the liquid in the ELISA plate and wash it 4 times with eluent. Add 300 μL/well reagent diluent and incubate the ELISA plate at room temperature for 1.5 hours. Wash the plate with eluent for four times. Then 100 μL/well samples were added to ELISA plate coated with IL1β and incubated at room temperature for 2 h. Wash the plate with eluent for four times. Each well was added with 100 μL detection antibody and incubated at 37° C. for 2 h. Wash the plate with eluent for four times. Add 100 μL of HRP labeled secondary antibody to each well. Incubate at 37° C. for 1 hour. Wash the plate with eluent for four times. Add 100 μL of A+B substrate per well. Incubate at 37° C. for 30 minutes. Add 100 μL STOP solution per well. Gently shake the plate for a few seconds. Read the absorption value at 450 nm on the EnVision multifunction reader and calculate the Inhibitory rate according to the following formula: Inhibition %=(Ave_H-Sample)/(Ave_H-Ave_L). Among them, Ave_H represents the average value of DMSO well, Sample represents the average value of compound well, and Ave_L represents the average value of 10 μM positive control well. The log value of concentration was taken as the X-axis and the percentage inhibitory rate as the Y-axis. […]

NACHT, LRR and PYD domains-containing protein 3, sequence (Q96P20 whole entry, the tested form may be a part): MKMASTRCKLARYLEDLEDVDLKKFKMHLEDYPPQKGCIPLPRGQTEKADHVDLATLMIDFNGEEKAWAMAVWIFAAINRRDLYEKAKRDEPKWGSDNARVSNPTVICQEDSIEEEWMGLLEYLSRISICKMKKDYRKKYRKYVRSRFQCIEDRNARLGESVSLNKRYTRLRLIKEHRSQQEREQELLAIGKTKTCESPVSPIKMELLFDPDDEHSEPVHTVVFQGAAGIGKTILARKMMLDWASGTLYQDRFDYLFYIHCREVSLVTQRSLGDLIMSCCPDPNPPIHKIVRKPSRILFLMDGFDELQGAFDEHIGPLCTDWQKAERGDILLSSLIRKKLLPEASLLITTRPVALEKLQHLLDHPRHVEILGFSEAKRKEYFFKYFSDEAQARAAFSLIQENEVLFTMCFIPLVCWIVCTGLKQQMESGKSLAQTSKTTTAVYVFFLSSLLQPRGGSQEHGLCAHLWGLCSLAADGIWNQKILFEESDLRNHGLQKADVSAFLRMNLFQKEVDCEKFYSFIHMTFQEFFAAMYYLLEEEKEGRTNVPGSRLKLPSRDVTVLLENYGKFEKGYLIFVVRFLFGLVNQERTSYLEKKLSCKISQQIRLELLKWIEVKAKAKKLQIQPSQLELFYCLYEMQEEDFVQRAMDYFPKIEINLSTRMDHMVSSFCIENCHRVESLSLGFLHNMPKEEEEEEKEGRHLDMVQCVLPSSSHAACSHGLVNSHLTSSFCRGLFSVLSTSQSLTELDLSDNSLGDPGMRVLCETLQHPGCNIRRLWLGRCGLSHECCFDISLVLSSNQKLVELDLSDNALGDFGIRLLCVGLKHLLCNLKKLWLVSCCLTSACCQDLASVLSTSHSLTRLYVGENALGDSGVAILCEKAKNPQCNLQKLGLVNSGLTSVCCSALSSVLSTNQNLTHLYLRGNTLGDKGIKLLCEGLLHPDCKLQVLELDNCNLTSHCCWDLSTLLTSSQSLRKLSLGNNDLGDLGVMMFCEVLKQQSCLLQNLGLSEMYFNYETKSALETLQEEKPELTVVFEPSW

COc1cc(-c2c(C)cc3c(c2NC(=O)NS(=O)(=O)c2ccn(C4CC(=C(F)F)C4)n2)CCC3)ccn1 (stereo unspecified) [US20240336562, Compound 22]
IC50: < 25 nM
